Laboratory results published in patent publication US6433015B1, “Method for reducing body weight” (IPR-Institute for Pharmaceutical Research AG, priority 1997, dated 2002).

Key:
[1] = cited from earlier work
[2] = 7-month study on body weight loss in 22 test persons administered creatine; assay type: in vivo, human
Procedure: An experiment was carried out with 22 test persons in order to confirm the weight reducing effect of creatine using the dosage according to the invention. The test persons were instructed for the duration of the experiment not to change their day-to-day habits (diet and physical exercise). In order to find the optimal dosage the test persons were initially divided into three groups with a daily dosage of either 100 mg, 300 mg or 600 mg of creatine. […] The data are reported as so-called body mass index (BMI), which is calculated from the body weight in dilograms divided by the height in meters in square.

CN(CC(=O)O)C(=N)N [creatine, N-Amidinosarcosine]
body weight ([1]; daily dosage of at least 15 g to 30 g (0.2 g to 0.4 g per kilogram body weight), physically active test persons, WO 94/02127, Sahelian, Gremion): enhancement of body weight | fat mass ([1]; high-dose creatine with high muscle strain, Sahelian 1997, Gremion 1995): the fat mass is decreased | body weight, reported as body mass index (BMI) ([2]; 7-month study, 22 test persons, after the 3 months dosage-finding period, single daily dose of 100 mg): a steady decrease of body weight occured | weight loss in dosage-finding period ([2]; groups with daily dosage of 100 mg, 300 mg or 600 mg of creatine, after 3 months, diet and physical exercise unchanged): the group with 100 mg had shown the most noticeable weight loss
